This experiment concerns MTT (mouse pheochromocytoma). The experiment is described as follows: IC50 of cell viability (ATP content). The settings on record: (24 or 48 h). A digest of the protocol:
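Library compounds in DMSO (23 nl by pintool, 8 concentrations, final 0.5 nM to 46 µM) were applied for 24 or 48 hrs to MTT mouse pheochromocytoma cells that had been cultured overnight at 37°C, 5% CO2 in white 1536-well plates. Cell viability was measured by CellTiter-Glo ATP luminescence, read after 15 minutes, with positive-control wells set at 100% and DMSO wells at 0%. A four-parameter logistic fit of the normalised signals yielded the IC50.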

Counter-ions that a name gives are not always drawn. Some results are limits rather than exact numbers.

Turning to `N#CCC(=O)NN` [Ciacetacida], the “IC50 of cell viability” value is more than 46 µM.

On to `CC(C)NCC(O)c1ccc2ccccc2c1` (centres undefined) [PRONETHALOL], for which the “IC50 of cell viability” value is more than 46 µM.

In the case of `CN(CC1=CC2=C(N\C(=N/C2=O)C)C=C1)C3=CC=C(S3)C(=O)N[C@@H](CCC(O)=O)C(O)=O` [Raltitrexed], the “IC50 of cell viability” value is more than 46 µM.

`CCCCC` [n-Pentane]: the “IC50 of cell viability” value was more than 46 µM.

For `CN(C)CCN(Cc1cccs1)c1ccccn1.Cl` [METHAPYRILENE HYDROCHLORIDE], the “IC50 of cell viability” value was more than 46 µM.

`CCN(CC)C(=O)Nc1ccc(OC[C@H](O)CNC(C)(C)C)c(C(C)=O)c1` [CELIPROLOL HYDROCHLORIDE]: the “IC50 of cell viability” value is more than 46 µM.

For `N[C@H](CCC(=O)O)C(=O)O` [D-GLUTAMIC ACID], the “IC50 of cell viability” value is more than 46 µM.

As to `NCC(=O)O` [Glycine], the “IC50 of cell viability” value is more than 46 µM.

As for `O=C(c1ccccc1)c1ccccc1` [Benzophenone], the “IC50 of cell viability” value is more than 46 µM.

As to `[Na+].CC(=O)OC\C1=C(\[N@]2[C@@H](SC1)[C@H](NC(=O)CSC3=CC=NC=C3)C2=O)C([O-])=O` [Cephapirin sodium salt], the “IC50 of cell viability” value was more than 46 µM.

With `OCc1cccnc1` [3-Pyridinemethanol], the “IC50 of cell viability” value was more than 46 µM.

In the case of `C[C@@H](O)[C@@H]1C(=O)N2C(C(=O)O)=C([C@H]3CCCO3)SC12` (some centres undefined) [Faropenem], the “IC50 of cell viability” value was more than 46 µM.

Regarding `CC1OC(OC2CCC3(C)C(CCC4C3CC(O)C3(C)C(C5=CC(=O)OC5)CCC43O)C2)CC(O)C1OC1CC(O)C(OC2CC(O)C(OC3OC(CO)C(O)C(O)C3O)C(C)O2)C(C)O1` (centres undefined) [DESLANOSIDE], the “IC50 of cell viability” value is more than 46 µM.

For `C[C@]12CC[C@H]3c4ccc(O)cc4CC[C@@H]3[C@H]1CC[C@@H]2OP(=O)(O)O` [Estradiol phosphate], the “IC50 of cell viability” value was more than 46 µM.

For `NCCCCC(NC(=O)C1CCCN1C(=O)C1CSSCC(N)C(=O)NC(Cc2ccc(O)cc2)C(=O)NC(Cc2ccccc2)C(=O)NC(CCC(N)=O)C(=O)NC(CC(N)=O)C(=O)N1)C(=O)NCC(N)=O` (centres undefined) [Lypressin], the “IC50 of cell viability” value was more than 46 µM.

Take `OC[C@@H](O)C(O[C@@H]1O[C@@H](CO)[C@H](O)[C@H](O)[C@H]1O)[C@H](O)[C@@H](O)CO` (some centres undefined) [Lactitol]: the “IC50 of cell viability” value is more than 46 µM.

With `COC1=CC2=C(C=C1OC)[C@@]34CCN5CC/6=C/COC7CC(=O)N2C3[C@H]7[C@@H]6C[C@H]45` (some centres undefined) [BRUCINE], the “IC50 of cell viability” value was more than 46 µM.

As to `N[C@@H](Cc1c[nH]c2ccc(O)cc12)C(=O)O` [5-HYDROXY-L-TRYPTOPHAN], the “IC50 of cell viability” value is more than 46 µM.

For `OC\C1=C\C(=O)\C(=C/O1)O` [KOJIC ACID], the “IC50 of cell viability” value is more than 46 µM.

On to `C/C(=C(/CCOP(=O)(O)O)SC(=O)c1ccccc1)N(C=O)Cc1cnc(C)nc1N` [Benfotiamine], for which the “IC50 of cell viability” value is more than 46 µM.

Regarding `CN1CCN(CCCN2c3ccccc3Sc3ccccc32)CC1` [Perazine], the “IC50 of cell viability” value was more than 46 µM.

For `CN(C)CCOC(c1ccccc1)c1ccccc1` [DIPHENHYDRAMINE], the “IC50 of cell viability” value was more than 46 µM.

On to `Cl.N[C@@H]1C(O)OC(CO)C(O)C1O` (some centres undefined) [GLUCOSAMINE HYDROCHLORIDE], for which the “IC50 of cell viability” value is more than 46 µM.

`CCCCNC(=O)N[S+](=O)([O-])c1ccc(N)cc1` [Carbutamide]: the “IC50 of cell viability” value was more than 46 µM.

Turning to `O=C(O)[C@@H]1CCCN1` (racemic) [DL-Proline], the “IC50 of cell viability” value was more than 46 µM.

Consider `CN1C=C(C2=CC=CC=C12)C3=C(/C(=O)NC\3=O)C4=CN(C5CCN(CC6=NC=CC=C6)CC5)C7=C4C=CC=C7` [Enzastaurin], for which the “IC50 of cell viability” value was more than 46 µM.

With `COc1ccc(C(=O)c2ccccc2)c(O)c1` [Oxybenzone], the “IC50 of cell viability” value is more than 46 µM.

In the case of `NC[C@@H]1O[C@@H](O[C@H]2[C@@H](O)[C@H](O[C@@H]3[C@@H](O)[C@H](N)C[C@H](N)[C@H]3O[C@H]3O[C@H](CN)[C@@H](O)[C@H](O)[C@H]3N)O[C@@H]2CO)[C@H](N)[C@@H](O)[C@@H]1O` [Neomycin Trisulfate Hydrate], the “IC50 of cell viability” value is more than 46 µM.

On to `CC(C)=CCC/C(C)=C/CC/C(C)=C/CCC(=O)OC/C=C(\C)CCC=C(C)C` [Geranyl farnesylacetate], for which the “IC50 of cell viability” value was more than 46 µM.

As for `CC/1=N/C2=CC=CC=C2C(=O)N1C3=C(Cl)C=CC=C3` [Mecloqualone], the “IC50 of cell viability” value is more than 46 µM.

Consider `C=C1CCC(O)C/C1=C/C=C1\CCC[C@]2(C)[C@@H]([C@H](C)/C=C/[C@H](C)C(C)C)CC[C@@H]12` (some centres undefined) [ERGOCALCIFEROL], for which the “IC50 of cell viability” value was more than 46 µM.

As for `COC1/C=C/O[C@@]2(C)Oc3c(C)c(O)c4c(O)c(c(C=NN5CCN(C)CC5)c(O)c4c3C2=O)NC(=O)C(C)=C/C=C/C(C)C(O)[C@@H](C)C(O)C(C)[C@H](OC(C)=O)C1C` (some centres undefined) [RIFAMPIN], the “IC50 of cell viability” value was more than 46 µM.

`CCCCC1C(=O)N(c2ccccc2)N(c2ccccc2)C1=O` [PHENYLBUTAZONE]: the “IC50 of cell viability” value is more than 46 µM.

As to `OC[C@@H]1O[C@@H](OC2=CC\3=C(OC(=O)\C=C3)C=C2O)[C@H](O)[C@H](O)[C@@H]1O` [Esculin Hydrate], the “IC50 of cell viability” value is more than 46 µM.

On to `Cn1cc(C(=O)[C@@H]2CCc3[nH]cnc3C2)c2ccccc21` [RAMOSETRON HYDROCHLORIDE], for which the “IC50 of cell viability” value is more than 46 µM.

With `COC(=O)CC[C@H](N)C(=O)O` [LEUCIGLUMERUM], the “IC50 of cell viability” value was more than 46 µM.

As for `CCCC(CCC)C(=O)OC1C[C@H]2CC[C@@H](C1)[N+]2(C)C` (some centres undefined) [Anisotropine methyl bromide], the “IC50 of cell viability” value is more than 46 µM.

Take `C=C(c1ccc(C(=O)O)cc1)c1cc2c(cc1C)C(C)(C)CCC2(C)C` [BEXAROTENE]: the “IC50 of cell viability” value was more than 46 µM.

`CCOC(=O)c1cc(-c2ccccc2)nc2ccc(C)cc12` [Neocinchophen]: the “IC50 of cell viability” value was more than 46 µM.

For `CC1[C@H]2Cc3ccc(O)cc3[C@]1(C)CCN2CCc1ccccc1` (single isomer, unassigned; (-)) [(-)-Phenazocine], the “IC50 of cell viability” value was more than 46 µM.

Consider `Cc1cc(-c2ccccc2)nnc1NCCN1CCOCC1.Cl.Cl` [MINAPRINE HYDROCHLORIDE], for which the “IC50 of cell viability” value was more than 46 µM.

`OCc1c[nH]c2ccccc12` [Indole-3-carbinol]: the “IC50 of cell viability” value is more than 46 µM.

Turning to `CN1CCN2c3ccccc3Cc3ccccc3C2C1` (centres undefined) [MIANSERIN], the “IC50 of cell viability” value is more than 46 µM.

Consider `CC(COc1ccccc1)N[NH3+]` (centres undefined) [Phenoxypropazine], for which the “IC50 of cell viability” value was more than 46 µM.

On to `CCCCCCCCCCCCCCCCC(C(=O)O)C(O)(CC(=O)O)C(=O)O` (centres undefined) [AGARICINUM], for which the “IC50 of cell viability” value was more than 46 µM.

Take `CC(=O)OO` [PERACETIC ACID]: the “IC50 of cell viability” value is more than 46 µM.

As for `CN1CCC[C@@H]1Cc1c[nH]c2ccc(CC[S+](=O)([O-])c3ccccc3)cc12` [ELETRIPTAN HYDROBROMIDE], the “IC50 of cell viability” value was more than 46 µM.

As for `CN[C@H](C)Cc1ccccc1` [S-(+)-Methamphetamine], the “IC50 of cell viability” value was more than 46 µM.

Consider `CNC(=O)NC(O)C(Cl)(Cl)Cl` (centres undefined) [MECLORALUREA], for which the “IC50 of cell viability” value was more than 46 µM.

Regarding `NCCNCCNCCN` [Triethylenetetramine], the “IC50 of cell viability” value was more than 46 µM.

Turning to `CCN[C@@]1(c2cccs2)CCCCC1=O` [Tiletamine hydrochloride], the “IC50 of cell viability” value is more than 46 µM.

Consider `CCOC(=O)\C1=C(/C)N\C(=C(/C1C2=CC=CC(=C2Cl)Cl)C(=O)OC)C` (centres undefined) [Felodipine], for which the “IC50 of cell viability” value was more than 46 µM.

As for `Cc1ccc(S(=O)(=O)[N-]Cl)cc1.O.O.O.[Na+]` [Chloramine T trihydrate], the “IC50 of cell viability” value was more than 46 µM.

For the molecule `C[C@](N)(Cc1ccc(O)c(O)c1)C(=O)O` [Methyldopa sesquihydrate], the “IC50 of cell viability” value was more than 46 µM.

Consider `CCN1\C=C(\C(O)=O)C(=O)C2=CC(=C(N3CCN[C@@H](C)C3)C(=C12)F)F` [Lomefloxacin HCl], for which the “IC50 of cell viability” value was more than 46 µM.

Take `COC(=O)\C1=C\CCN(C)C1` [ARECOLINE]: the “IC50 of cell viability” value was more than 46 µM.

For the molecule `CC(C)[N+](C)(CCC(C(N)=O)(c1ccccc1)c1ccccc1)C(C)C` [Isopropamide iodide], the “IC50 of cell viability” value is more than 46 µM.

For `CCN(CC)CCOCCOC(=O)C1(c2ccccc2)CCCC1` [CARBETAPENTANE], the “IC50 of cell viability” value is more than 46 µM.

With `CNc1ccc(C(=O)CC(O)CCC(C)C2OC(=O)CC(O)CC(=O)CC(O)CC(O)CC(O)CC(O)CC3(O)CC(O)C(C(=O)OC)C(CC(O[C@@H]4OC(C)C(O)C(N)C4O)/C=C/C=C/C=C/C=C/C=C/C=C/C=C/C2C)O3)cc1` (some centres undefined) [MEPARTRICIN], the “IC50 of cell viability” value is more than 46 µM.

In the case of `COC1=CC=C2CN(C)CC[C@@]34\C=C/[C@H](O)C[C@@H]3OC1=C24` [GALANTHAMINE], the “IC50 of cell viability” value is more than 46 µM.

In the case of `CNC1C(OC2C(O[C@@H]3C(O)C(O)[C@@H](NC(=N)N)C(O)C3NC(=N)N)OC(C)[C@@]2(O)CO)OC(CO)C(O)C1O.O=[S+]([O-])(O)O` (some centres undefined) [DIHYDROSTREPTOMYCIN SULFATE], the “IC50 of cell viability” value was more than 46 µM.

In the case of `Cc1ccc(N)cc1O` [5-Amino-o-cresol], the “IC50 of cell viability” value was more than 46 µM.

On to `O=C1CC[C@@]2(O)C3Cc4ccc(O)c5c4C2(CCN3CC2CC2)[C@H]1O5` (some centres undefined) [NALTREXONE], for which the “IC50 of cell viability” value is more than 46 µM.

Turning to `CC(=O)c1ccc(OCC(=O)N2CCCCC2)cc1` [Ethanone, 2-(4-acetylphenoxy)-1-(1-piperidinyl)-], the “IC50 of cell viability” value was more than 46 µM.
